Laboratory results from article PMC11064044, “Synthesis and Characterization of Piano-Stool Ruthenium(II)–Arene Complexes of Isatin Schiff Bases: Cytotoxicity and DNA Intercalation” (ACS Omega, 2024).

Assays:
[1] = test system: HEPG2 (hepatocellular carcinoma); experiment: MTT cell viability assay, HEPG2; assay type: cell-based, human
Procedure: (§1) HEPG2 (ATCC-HB-8065), MCF-7 (ATCC-CRL-3435), PC-3 (ATCC-CRL-1435), and HEK-293 (ATCC-CRL-1573) cells were purchased from American Type Culture Collection (ATCC). Human cancer cells and embryonic kidney cells were maintained in Roswell Park Memorial Institute (RPMI) media supplemented with 10% fetal bovine serum and 1% penicillin–streptomycin solution in a 37 °C incubator with 5% CO2.
(§2) The cell viability was assessed by using an MTT assay. MTT was purchased from Sigma and prepared in phosphate-buffered saline (5 mM). […] After incubation, 20 μL of MTT solution was added to each well and incubated at 37 °C for an additional 4h. Finally, the MTT solution was removed, and 200 μL of DMSO was added to each well. The absorbance was measured at 590 nm by using a spectrometer (Tecan). The IC50 values were calculated from the MTT viability data using the software CalcuSyn (Biosoft).

[2] = test system: MCF-7 (human breast cancer); experiment: MTT cell viability assay, MCF-7; assay type: cell-based
Procedure: as §1, §2

[3] = test system: PC-3 (human prostate cancer); experiment: MTT cell viability assay, PC-3; assay type: cell-based; details: 72 h
Procedure: as §1, §2

[4] = test system: HEK-293 (human embryonic kidney); experiment: MTT cell viability assay, HEK-293; assay type: cell-based
Procedure: as §1, §2

Compound	IC50 ([1]; Homo sapiens, HepG2, 72 h) [µM]	IC50 ([2]; Homo sapiens, MCF7, 72 h) [µM]	IC50 ([3]; Homo sapiens) [µM]	IC50 ([4]; Homo sapiens, HEK293, 72 h) [µM]	IC50 ([1]; 72 h) [µM]	IC50 ([2]; 72 h) [µM]	IC50 [3] [µM]	IC50 ([4]; 72 h) [µM]
CCCCN1C(=O)/C(=N/c2ccccc2)c2ccccc21 [3b]	43 ± 1.8	52.6 ± 3.1	58.1 ± 3.3	61.9 ± 0.6	–	–	–	–
CCCCN1C(=O)/C(=N/c2c(C)cc(C)cc2C)c2ccccc21 [3c]	3.9 ± 0.3	27.2 ± 2.4	58.4 ± 2	26.9 ± 1.6	–	–	–	–
CCCCN1C(=O)C(=O)c2ccccc21 [compound 2, N-butylisatin]	226.5 ± 1.5	100 ± 2.4	58.2 ± 3.2	127 ± 2.8	–	–	–	–
N.N.[Cl][Pt][Cl] [cisplatin, reference compound]	–	–	–	–	22.2 ± 0.5	20.8 ± 2.3	18.5 ± 0.7	10.7 ± 0.8
